# Data as given in patent publication US20230183292A1, “IMMUNOMODULATORS” (priority 2020, published 2023).
# pIC50: −log10 of the molar value. Starred links: 1 amine or outer side, 2 acyl side, 3 side chain; linkers in the order of their positions; H or OH if unused. Positions of bridges follow the written chain, without caps; N, C: chain ends. Non-standard residues stand in square brackets, D forms with d. Residues, ends and D or L forms follow the SMILES beside them. Groups on a side chain read outwards from the residue. *: point of attachment. Cholyl = C[C@H](CCC(=O)*)[C@H]1CC[C@H]2[C@@H]3[C@H](O)C[C@@H]4C[C@H](O)CC[C@]4(C)[C@H]3C[C@H](O)[C@]12C; Dehydrocholoyl = C[C@H](CCC(=O)*)[C@H]1CC[C@H]2[C@@H]3C(=O)C[C@@H]4CC(=O)CC[C@]4(C)[C@H]3CC(=O)[C@]12C; X18 = CCN(CC)CCCNC(=O)Cn1cc(C[C@H](N[*:1])C(=O)[*:2])c2ccccc21; X35 = O=C(Cn1cc(C[C@H](N[*:1])C(=O)[*:2])c2ccccc21)NCC(F)(F)F; Trp(1-CH2CO2Me) = COC(=O)Cn1cc(C[C@H](N)C(=O)O)c2ccccc21; X7 = NCCCCNC(=O)Cn1cc(C[C@H](N[*:1])C(=O)[*:2])c2ccccc21; Pro(4R-Me) = C[C@H]1CN[C@H](C(=O)O)C1; Hyp = O=C(O)[C@@H]1C[C@@H](O)CN1; NMeNle = CCCC[C@H](NC)C(=O)O; NMeA = CN[C@@H](C)C(=O)O; Dab = NCC[C@H](N)C(=O)O; Dap = NC[C@H](N)C(=O)O
# Target: T1, PD-1/PD-L1 (Homo sapiens, UniProt Q9NZQ7)
# T1 construct: TVMV protease site (C); made in house; host or cells: HEK293T cells
# T1 sequence (Q9NZQ7 18-239): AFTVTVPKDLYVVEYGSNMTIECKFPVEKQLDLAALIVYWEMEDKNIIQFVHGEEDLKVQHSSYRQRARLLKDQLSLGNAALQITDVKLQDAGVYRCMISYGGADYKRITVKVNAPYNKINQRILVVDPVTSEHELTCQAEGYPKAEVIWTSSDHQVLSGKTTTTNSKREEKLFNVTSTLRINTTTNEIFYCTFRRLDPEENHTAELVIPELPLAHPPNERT
# Experiment: PD-1/PD-L1 Homogenous Time-Resolved Fluorescence (HTRF) binding assay
# Settings: HTRF IC50, PD-L1-His 10 nM, PD-1-Ig 20 nM
# How it was run: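 Inhibitors pre-incubated 15 min with PD-L1-His (10 nM final) in dPBS, 0.1% BSA, 0.05% Tween-20, then 15 min with PD-1-Ig (20 nM final). Eu-cryptate anti-Ig (1 nM) and APC anti-His (20 nM) added, 30 min equilibration; HTRF 665/620 nm ratio. Human ECD proteins from HEK293T.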
row,SMILES,pIC50
1,CCCC[C@H]1C(=O)N(C)[C@@H](CCCC)C(=O)N[C@@H](CC(C)C)C(=O)N[C@H](C(=O)NCC(N)=O)CSCC(=O)N[C@@H](Cc2ccc(O)cc2)C(=O)N(C)[C@@H](C)C(=O)N[C@@H](CC(N)=O)C(=O)N2CCC[C@H]2CN[C@@H](CNC(=O)CC[C@@H](C)[C@H]2CC[C@H]3[C@@H]4[C@H](O)C[C@@H]5C[C@H](O)CC[C@]5(C)[C@H]4C[C@H](O)[C@]23C)C(=O)N[C@@H](CC(C)C)C(=O)N2C[C@H](O)C[C@H]2C(=O)N[C@@H](Cc2c[nH]c3ccccc23)C(=O)N[C@@H](CCNC(=O)CC[C@@H](C)[C@H]2CC[C@H]3[C@@H]4[C@H](O)C[C@@H]5C[C@H](O)CC[C@]5(C)[C@H]4C[C@H](O)[C@]23C)C(=O)N[C@@H](Cc2cn(CC(=O)Oc3ccccc3)c3ccccc23)C(=O)N1C [Example 2007],6.14

# Same assay, conditions: PD-L1-His 10 nM, PD-1-Ig 20 nM; read-out: HTRF IC50
row,SMILES,pIC50
1,CCCCCCOC(=O)Cn1cc(C[C@@H]2NC(=O)[C@H](CCNC(=O)CC[C@@H](C)[C@H]3CC[C@H]4[C@@H]5C(=O)C[C@@H]6CC(=O)CC[C@]6(C)[C@H]5CC(=O)[C@]34C)NC(=O)[C@H](Cc3c[nH]c4ccccc34)NC(=O)[C@@H]3C[C@@H](O)CN3C(=O)[C@H](CC(C)C)NC(=O)[C@H](CNC(=O)CC[C@@H](C)[C@H]3CC[C@H]4[C@@H]5C(=O)C[C@@H]6CC(=O)CC[C@]6(C)[C@H]5CC(=O)[C@]34C)NC[C@@H]3CCCN3C(=O)[C@H](CC(N)=O)NC(=O)[C@H](C)N(C)C(=O)[C@H](Cc3ccc(O)cc3)NC(=O)CSC[C@@H](C(=O)NCC(N)=O)NC(=O)[C@H](CC(C)C)NC(=O)[C@H](CCCC)N(C)C(=O)[C@H](CCCC)N(C)C2=O)c2ccccc21 [Example 2014],5.34
2,CCCC[C@H]1C(=O)N(C)[C@@H](CCCC)C(=O)N[C@@H](CC(C)C)C(=O)N[C@H](C(=O)NCC(N)=O)CSCC(=O)N[C@@H](Cc2ccc(O)cc2)C(=O)N(C)[C@@H](C)C(=O)N[C@@H](CC(N)=O)C(=O)N2CCC[C@H]2CN[C@@H](CNC(=O)CC[C@@H](C)[C@H]2CC[C@H]3[C@@H]4[C@H](O)C[C@@H]5C[C@H](O)CC[C@]5(C)[C@H]4C[C@H](O)[C@]23C)C(=O)N[C@@H](CC(C)C)C(=O)N2C[C@H](O)C[C@H]2C(=O)N[C@@H](Cc2c[nH]c3ccccc23)C(=O)N[C@@H](CCNC(=O)CC[C@@H](C)[C@H]2CC[C@H]3[C@@H]4[C@H](O)C[C@@H]5C[C@H](O)CC[C@]5(C)[C@H]4C[C@H](O)[C@]23C)C(=O)N[C@@H](Cc2cn(CC(=O)OC3CC3)c3ccccc23)C(=O)N1C [Example 2003],6.01
3,CCCC[C@H]1C(=O)N(C)[C@@H](CCCC)C(=O)N[C@@H](CC(C)C)C(=O)N[C@H](C(=O)NCC(N)=O)CSCC(=O)N[C@@H](Cc2ccc(O)cc2)C(=O)N(C)[C@@H](C)C(=O)N[C@@H](CC(N)=O)C(=O)N2CCC[C@H]2C(=O)N[C@@H](CNC(=O)CC[C@@H](C)[C@H]2CC[C@H]3[C@@H]4C(=O)C[C@@H]5CC(=O)CC[C@]5(C)[C@H]4CC(=O)[C@]23C)C(=O)N[C@@H](CC(C)C)C(=O)N2C[C@H](O)C[C@H]2C(=O)N[C@@H](Cc2c[nH]c3ccccc23)C(=O)N[C@@H](CCNC(=O)CC[C@@H](C)[C@H]2CC[C@H]3[C@@H]4C(=O)C[C@@H]5CC(=O)CC[C@]5(C)[C@H]4CC(=O)[C@]23C)C(=O)N[C@@H](Cc2cn(CC(=O)NCC(F)(F)F)c3ccccc23)C(=O)N1C [Example 2018] ({CH2CO}-Y[NMeA]NP[Dap](Dehydrocholoyl)L[Hyp]W[Dab](Dehydrocholoyl)[X35][NMeNle][NMeNle]LCG-NH2; thioether N-14),7.77
4,CCCC[C@H]1C(=O)N(C)[C@@H](CCCC)C(=O)N[C@@H](CC(C)C)C(=O)N[C@H](C(=O)NCC(N)=O)CSCC(=O)N[C@@H](Cc2ccc(O)cc2)C(=O)N(C)[C@@H](C)C(=O)N[C@@H](CC(N)=O)C(=O)N2CCC[C@H]2C(=O)N[C@@H](CNC(=O)CNC(=O)CC[C@@H](C)[C@H]2CC[C@H]3[C@@H]4[C@H](O)C[C@@H]5C[C@H](O)CC[C@]5(C)[C@H]4C[C@H](O)[C@]23C)C(=O)N[C@@H](CC(C)C)C(=O)N2C[C@H](C)C[C@H]2C(=O)N[C@@H](Cc2c[nH]c3ccccc23)C(=O)N[C@@H](CCNC(=O)CNC(=O)CC[C@@H](C)[C@H]2CC[C@H]3[C@@H]4[C@H](O)C[C@@H]5C[C@H](O)CC[C@]5(C)[C@H]4C[C@H](O)[C@]23C)C(=O)N[C@@H](Cc2cn(CC(=O)NCCCCN)c3ccccc23)C(=O)N1C [Example 2031] ({CH2CO}-Y[NMeA]NP[Dap]([Gly-Cholyl])L[Pro(4R-Me)]W[Dab]([Gly-Cholyl])[X7][NMeNle][NMeNle]LCG-NH2; thioether N-14),6.31
5,CCCC[C@H]1C(=O)N(C)[C@@H](CCCC)C(=O)N[C@@H](CC(C)C)C(=O)N[C@H](C(=O)NCC(N)=O)CSCC(=O)N[C@@H](Cc2ccc(O)cc2)C(=O)N(C)[C@@H](C)C(=O)N[C@@H](CC(N)=O)C(=O)N2CCC[C@H]2C(=O)N[C@@H](CNC(=O)CC[C@@H](C)[C@H]2CC[C@H]3[C@@H]4[C@H](O)C[C@@H]5C[C@H](O)CC[C@]5(C)[C@H]4C[C@H](O)[C@]23C)C(=O)N[C@@H](CC(C)C)C(=O)N2C[C@H](O)C[C@H]2C(=O)N[C@@H](Cc2c[nH]c3ccccc23)C(=O)N[C@@H](CCNC(=O)CC[C@@H](C)[C@H]2CC[C@H]3[C@@H]4[C@H](O)C[C@@H]5C[C@H](O)CC[C@]5(C)[C@H]4C[C@H](O)[C@]23C)C(=O)N[C@@H](Cc2cn(CC(=O)NCCCN(CC)CC)c3ccccc23)C(=O)N1C [Example 2008] ({CH2CO}-Y[NMeA]NP[Dap](Cholyl)L[Hyp]W[Dab](Cholyl)[X18][NMeNle][NMeNle]LCG-NH2; thioether N-14),7.02
6,CCCC[C@H]1C(=O)N(C)[C@@H](CCCC)C(=O)N[C@@H](CC(C)C)C(=O)N[C@H](C(=O)NCC(N)=O)CSCC(=O)N[C@@H](Cc2ccc(O)cc2)C(=O)N(C)[C@@H](C)C(=O)N[C@@H](CC(N)=O)C(=O)N2CCC[C@H]2C(=O)N[C@@H](CNC(=O)CC[C@@H](C)[C@H]2CC[C@H]3[C@@H]4[C@H](O)C[C@@H]5C[C@H](O)CC[C@]5(C)[C@H]4C[C@H](O)[C@]23C)C(=O)N[C@@H](CC(C)C)C(=O)N2C[C@H](O)C[C@H]2C(=O)N[C@@H](Cc2c[nH]c3ccccc23)C(=O)N[C@@H](CCN)C(=O)N[C@@H](Cc2cn(CC(=O)OC)c3ccccc23)C(=O)N1C [Example 1007] ({CH2CO}-Y[NMeA]NP[Dap](Cholyl)L[Hyp]W[Dab][Trp(1-CH2CO2Me)][NMeNle][NMeNle]LCG-NH2; thioether N-14),8.17
